Patent publication US20230183303A1, “Therapeutic Potential of Peptides from the "Netrin-Like" Domain of the FRZB Protein” (Université de Lorraine, priority 2020, published 2023)
“Also recorded” adds a separate entry of the source.

Key:
MC3T3-E1 cells = test: Quantification of mineralization (Alizarin Red) in MC3T3-E1 cells; assay type: cell-based, mouse; conditions: PEP12 at 300 and 1000 ng/ml; 21 days; absorbance 405 nm
Procedure: Each time point was processed in three technical replicates. The medium was changed every two days.
Cells were washed with PBS and fixed with 95% ice-cold ethanol for 30 min at 4° C. for staining. After washing with distilled water, cells were stained with Alizarin Red staining (1% Alizarin Red S (Sigma)), washed three times with distilled water to remove unbound staining and air-dried. Quantification of the staining was performed by dissolving the mineral content in 800 μl of 10% acetic acid for 30 minutes. Then, the wells were scraped, the content of each well was harvested in a separate tube and vortexed for 30 seconds. Each tube was heated at 85° C. for 10 minutes, then put on ice for 5 minutes. Finally, tubes were centriguated at 13000 rpm for 15 minutes, the liquid phase was harvested and mixed with 100 μl of 10% ammonium hydroxide. Absorbance was measured at 405 nm with a spectrophotometer (Varioskan Flash, Thermo Fisher Scientific).
The mineralization level was evaluated by a biochemical assay as previously described after 21 days of differentiation culture. Results are representative of 3 experiments.

alkaline phosphatase = conditions: 300 ng/ml, 1000 ng/ml; day 1 and day 21; vs CTL
Procedure: MC3T3-E1 cells were differentiated during 21 days as mentioned previously. […] Treated cells were compared to cells without any peptide stimulation (CTL).
We also assessed the specific alkaline phosphatase activity (μmol de para-nitrophenol/min/mg of protein). To that goal, we lysed the cells using 300 μL of a buffer containing 0.2 M Tris-Base, 1.6 mM MgCl2 pH 8.1 and 1% Triton X-100. Samples were then placed into tubes and put on ice for 30 min. During this time, we alternated periods of 30 sec vortex and 5 min on ice. Then, samples were sonicated, and centrifugated for 15 min at 13 000 g, 4° C. Supernatant was collected, and total protein concentration was evaluated using bicinchoninic acid assay.
Alkaline phosphatase activity was measured by placing the harvested supernatants in para-nitrophenyl phosphate (pNPP) solution. The alkaline phosphatase will cleave this substrate and generate para-nitrophenol (pNP).
A solution of 4 mg/mL of pNPP is prepared in buffer A (0.1 M glycine pH 10.5, 0.11% (m/v) Zinc acetate and 0.011% magnesium chloride (m/v)). […]
Absorbance is read at 410 nm on a Varioskan Flash apparatus. Alkaline phosphatase activity is calculated based on the standard curve (equation A410=a×quantity(ρNP)+b) with the following formula: activity=((A(410 nm)−b)×reaction volume)/(a×sample volume×reaction time)

ATDC5 micromasses [1] = test: qRT-PCR relative expression of genes of interest in ATDC5 micromass culture (chondrogenesis); assay type: cell-based, mouse; conditions: for MMP3 expression / YAP/TAZ target genes (CTGF) expression / articular chondrocyte extracellular matrix genes (type II collagen and aggrecan) expression: 300 ng/ml, differentiated 14 days with ITS, D14 vs CTL
Procedure: (§1) Mouse chondrogenic ATDC5 cells (cartilage-specific chondrogenic strain) were cultured until confluent in maintenance medium containing 1:1 Dulbecco's modified Eagle's medium (DMEM): Ham's F-12 mix (Gibco) supplemented with 1% antibiotic (AB, Penicillin-Streptomycin, Gibco), 5% fetal bovine serum (FBS) (Gibco) and enriched with […] human transferrin (Sigma) and 30 nM sodium selenite (Sigma). Cells were trypsinized, washed and resuspended at 2.10^7 cells/mL in a chondrogenic medium made of maintenance medium enriched by 1× of ITS premix (resulting in 10 μg/mL insulin, 10 μg/mL human transferrin and 30 nM sodium selenite) (Life technologies). One droplet of cell suspension (10 μL) was placed at the center of each well of a 24-well plate. Cells were allowed to adhere for 2 h at 37° C., followed by addition of 500 μL chondrogenic medium supplemented. […] After 14 days, induction of hypertrophic differentiation and mineralization was induced by the mineralization medium made of α-MEM medium (Gibco) containing 1% AB, 5% FBS, 5 μg/ml human transferrin, 1× of ITS premix, 50 μg/ml ascorbic acid-2-phosphate (AA) (Sigma) and 10 mM β-glycerophosphate (BGP) (Sigma). […] Micromasses were collected at time points 1, 7, 14 21 and 28 days. Each time point was processed in three technical replicates. The medium was changed every other day. […] The genes of interest were articular chondrocyte markers (aggrecan, type 2 collagen (col2a1)), YAP/TAZ target genes (ctgf, ankrd) and pro-catabolic enzymes involved in the pathophysiology of OA (mmp3, mmp13).
(§2) Total RNA was isolated using the Nucleospin RNA II kit (Macherey-Nagel) and reverse-transcribed using the MMLV reverse transcriptase (Thermo Fisher Scientific) following the manufacturers' instructions. The iTaq SYBR green qPCR master mix (BioRad) was used to assess the mRNA expression of target genes of interest. Primer sequences can be provided upon request. The following PCR conditions were used: 1 minute at 95° C., 40 cycles of 15 sec of denaturation at 95° C., followed by 1 minute of annealing-elongation at 60° C. Melting curve analysis was performed to determine the amplification of the specific product. Results were expressed using the comparative threshold method and were normalized to housekeeping gene PPIA (Peptidylprolyl Isomerase A) mRNA level for ATDC5 cells and MACs, or normalized to housekeeping gene S29 (ribosomal protein S29) mRNA level for MC3T3-E1 cells. The Via7 real-time PCR system (Thermo Fisher Scientific) was used for qRT-PCR measurements.
ATDC5 cells were cultured as micromasses and differentiated during 14 days using ITS as mentioned previously. […] RNA was isolated and qPCR were performed for different target genes, i.e. type II collagen and aggrecan (articular chondrocyte extracellular matrix), CTGF (YAP/TAZ target genes, indicators of the pathway activity) and MMP3 (cartilage degrading enzyme increased during osteoarthritis) (FIG. 15). Alcian blue staining was performed on the micromasses cultures, and biochemical quantitation was performed as previously described (FIG. 16).
ATDC5 cells were cultured as micromasses and differentiated during 14 days using ITS as mentioned previously. […] RNA was isolated and qPCR were performed for different target genes, i.e. type II collagen and aggrecan (articular chondrocyte extracellular matrix), CTGF (YAP/TAZ target gene, indicator of the pathway activity) and MMP3 (cartilage degrading enzyme increased during osteoarthritis) (FIG. 17). Alcian blue staining was performed on the micromasses cultures, and biochemical quantitation was performed as previously described (FIG. 18).

Wnt/β-catenin pathway = test: Western blot of Wnt/β-catenin pathway activation in ATDC5 micromasses; assay type: cell-based, mouse; conditions: 300 ng/mL; day 21 and 28
Procedure: (§3) Mouse chondrogenic ATDC5 cells (cartilage-specific chondrogenic strain) were cultured until confluent in maintenance medium containing 1:1 Dulbecco's modified Eagle's medium (DMEM): Ham's F-12 mix (Gibco) supplemented with 1% antibiotic (AB, Penicillin-Streptomycin, Gibco), 5% fetal bovine serum (FBS) (Gibco) and enriched with […] human transferrin (Sigma) and 30 nM sodium selenite (Sigma). Cells were trypsinized, washed and resuspended at 2.10^7 cells/mL in a chondrogenic medium made of maintenance medium enriched by 1× of ITS premix (resulting in 10 μg/mL insulin, 10 μg/mL human transferrin and 30 nM sodium selenite) (Life technologies). One droplet of cell suspension (10 μL) was placed at the center of each well of a 24-well plate. Cells were allowed to adhere for 2 h at 37° C., followed by addition of 500 μL chondrogenic medium supplemented. […] After 14 days, induction of hypertrophic differentiation and mineralization was induced by the mineralization medium made of α-MEM medium (Gibco) containing 1% AB, 5% FBS, 5 μg/ml human transferrin, 1× of ITS premix, 50 μg/ml ascorbic acid-2-phosphate (AA) (Sigma) and 10 mM β-glycerophosphate (BGP) (Sigma). […] Micromasses were collected at time points 1, 7, 14 21 and 28 days. Each time point was processed in three technical replicates. The medium was changed every other day. […]

[2] = tested on: 7×TCF/LEF response elements (Super 8×TOPFlash reporter); test: Promoter activation assay, Super 8×TOPFlash luciferase reporter in ATDC5 cells stimulated with Wnt3a; assay type: cell-based, mouse; conditions: peptide at 300 ng/ml; 10 or 100 ng/mL recombinant Wnt3a; 24 h
Procedure: Results were normalized by-cotransfecting each of the above plasmid with the tyrosine kinase-renilla luciferase plasmid (Promega). Transfections were carried out using the Dharmafect kb transfection reagent (Fisher Scientific). Briefly, reporter plasmids and transfection reagent were diluted in serum-free medium, and then the diluted Dharmafect kb was added to the plasmids for an incubation time of 10 minutes at room temperature. During that time, cells were rinsed with PBS and were placed in fresh maintenance medium. When incubation was over, the mixture of transfection reagent-plasmids was dispensed in each well. Stimulations (with Wnt3a and/or PEP16 and/or PEP16bis) were carried out the next day.

[3] = tested on: mouse articular chondrocytes; test: qRT-PCR relative expression of genes of interest in mouse articular chondrocytes; assay type: cell-based; conditions: 300 ng/mL; 12 h of stimulation
Procedure: Mouse articular chondrocyte (MACs) were isolated from femoral heads by enzymatic digestion of whole femoral head caps. Samples were washed three times in 1% AB/phosphate buffered saline (PBS) and incubated with 2 mg/ml pronase (Roche)/DMEM-F12 at 37° C. for 1 h at slow rotation 100 rpm followed by a 3 h incubation with 1.5 mg/ml collagenase B (Roche)/DMEM-F12 at 37° C. Cells were seeded at 1×10^6 cells/[…], and cultured for 7 to 14 days in growth medium DMEM-F12, containing 1% AB (Gibco), 10% FBS (Gibco) and 5% L-glutamine (Thermoscientific). Passage 1 cells were utilized for the experiments. The culture supernatants were then harvested in order to perform MMP13 enzymatic activity assay. The evaluation of the expression of genes of interest included articular chondrocyte markers (aggrecan, type 2 collagen (col2a1)), YAP/TAZ target genes (ankrd) and pro-catabolic enzyme involved in the pathophysiology of OA (mmp3).
as §2

CamKII pathway = test: Western blot of CamKII pathway activation in ATDC5 micromasses; assay type: cell-based, mouse; conditions: 300 ng/mL; day 21 and 28
Procedure: as §3

ATDC5 micromasses [4] = test: Glycosaminoglycan/proteoglycan quantification (Alcian blue staining) in ATDC5 micromasses; assay type: cell-based, mouse; conditions: for proteoglycans deposition in the extracellular matrix (Alcian blue, absorbance 650 nm): 300 ng/ml, 14 days, vs control cells
Procedure: as §1
Micromasses were washed with PBS and fixed with 95% ice-cold ethanol for 30 min at 4° C. for staining. After washing with distilled water, micromasses were stained with Alcian Blue (0.1% Alcian Blue 8GX, (Sigma)), washed three times with distilled water to remove unbound staining and air-dried.

mouse model of OA = mouse model of OA (Zhang et al., 2020); cited from earlier work
[5] = 300 ng/mL, day 1, 21, 28, vs non-treated control

Substance: ATQKTYFRNNYN (PEP12)
- extracellular matrix mineralization (biochemical quantitation) (MC3T3-E1 cells): not able to increase extracellular matrix mineralization
- specific alkaline phosphatase activity (alkaline phosphatase): not able to increase the alkaline phosphatase activity

Substance: DRAGKKVKRWDMKARH (PEP16bis) [mutant of PEP16, L in position 3 and 14 changed to A]
- expression of Ctgf, a target gene of the Hippo/YAP/TAZ pathway (ATDC5 micromasses [1]; [5]): efficiently reduced the expression
- relative expression level of aggrecan (ATDC5 micromasses [1]; [5]): favoured the induction of the expression
- relative expression level of col2a1 (type 2 collagen) (ATDC5 micromasses [1]; [5]): favoured the induction of the expression
- relative expression level of mmp3 (ATDC5 micromasses [1]; [5]): efficiently reduced the expression
- relative expression level of mmp13 (ATDC5 micromasses [1]; [5]): efficiently reduced the expression
- Wnt/β-catenin pathway activation (active protein form over total protein form) (Wnt/β-catenin pathway): reduced in the activation of the Wnt/β-catenin pathway
- activity of the canonical Wnt pathway in the Super TOPFlash luciferase reporter system (Firefly/renilla ratio) [2]: very similar properties (biological activity) to the initial sequence PEP16; also recorded: significantly reduce the activity
- expression of Ankrd, a target gene of the Hippo/YAP/TAZ pathway [3]: capable of reducing the expression
- CamKII pathway activation (P-CamKII over total) (CamKII pathway): increased the activation of the CamKII pathway
- glycosaminoglycans quantification (accumulation in the extracellular matrix) (ATDC5 micromasses [4]; 300 ng/mL, Alcian blue at day 28, absorbance 650 nm): significantly increased the accumulation of glycosaminoglycans

Substance: DRIGKKVKRWDMKIRH (PEP i) [PEP16 where L in position 3 and 14 were changed to an Isoleucine]
- MMP3 expression (ATDC5 micromasses [1]): significant decrease
- YAP/TAZ target genes (CTGF) expression (ATDC5 micromasses [1]): significant decrease
- articular chondrocyte extracellular matrix genes (type II collagen and aggrecan) expression (ATDC5 micromasses [1]): significant increase
- proteoglycans deposition in the extracellular matrix (Alcian blue, absorbance 650 nm) (ATDC5 micromasses [4]): significantly increase the proteoglycans deposition

Substance: DRSGKKVKRWDMKSRH (PEP s) [PEP16 where L in position 3 and 14 were changed to a Serine]
- MMP3 expression (ATDC5 micromasses [1]): significant decrease
- YAP/TAZ target genes (CTGF) expression (ATDC5 micromasses [1]): significant decrease
- articular chondrocyte extracellular matrix genes (type II collagen and aggrecan) expression (ATDC5 micromasses [1]): significant increase
- proteoglycans deposition in the extracellular matrix (Alcian blue, absorbance 650 nm) (ATDC5 micromasses [4]): significantly increase the proteoglycans deposition

Substance: Verteporfin
- cartilage homeostasis (mouse model of OA): allowed preserving the cartilage homeostasis
